The record followed here is US10562891B2, “Quinazolinones as PARP14 inhibitors” (Ribon Therapeutics Inc., priority 2017, dated 2020).

Each structure is given as a SMILES string. pIC50: −log10 of the molar value. Counter-ions that a name gives are not always drawn. A value given as a limit tells only on which side of the number the result lay.

catalytic domain of human PARP14, sequence (Q460N5 1611-1801): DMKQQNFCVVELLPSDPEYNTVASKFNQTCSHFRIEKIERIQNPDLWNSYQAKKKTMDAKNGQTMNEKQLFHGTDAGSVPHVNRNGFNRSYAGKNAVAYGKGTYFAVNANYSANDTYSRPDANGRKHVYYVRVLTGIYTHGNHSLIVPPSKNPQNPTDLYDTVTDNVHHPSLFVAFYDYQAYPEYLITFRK

The assay has as its target catalytic domain of human PARP14 (Homo sapiens (Human), UniProt Q460N5). The experiment in a line: Enzymatic assay for inhibition of PARP14 (DELFIA, auto-modification with biotin-NAD). Format: biochemical. Particulars: auto-modification of PARP14 by biotin-NAD, 50 nM PARP14, 3 μM biotin-NAD. The method in brief: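 DELFIA auto-modification read-out: europium-streptavidin bound to biotin-NAD incorporated onto nickel-captured His-TEV PARP14 catalytic domain. Compound preincubated 30 min, then 50 nM enzyme with 3 μM biotin-NAD reacted 3 h, all at 25 °C, pH 8, then NAD quench. Percent inhibition normalized to rucaparib/DMSO wells, fitted (4- or 3-parameter) for IC50.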
The pIC50 is the IC50 on a negative log10 scale, so that one unit is a factor of ten. Low values mean a high IC50, high ones a low IC50. Compound `O=c1[nH]c(CSC2CCOCC2)nc2cc(OCC3CCOC3)cc(F)c12` (stereo not shown) [Example 238, 5-Fluoro-2-(((tetrahydro-2H-pyran-4-yl)thio)methyl)-7-((tetrahydrofuran-3-yl)methoxy)quinazolin-4(3H)-one] gave a pIC50 above 6.00.

As for `O=c1[nH]c(CSC2CCOCC2)nc2cc(OC[C@@H]3CCOC3)cc(F)c12` [Example 239a, (R)-5-fluoro-2-(((tetrahydro-2H-pyran-4-yl)thio)methyl)-7-((tetrahydrofuran-3-yl)methoxy)quinazolin-4(3H)-one], the pIC50 is above 6.00.

`O=c1[nH]c(CSC2CCOCC2)nc2cc(OC[C@H]3CCOC3)cc(F)c12` [Example 239b, (S)-5-fluoro-2-(((tetrahydro-2H-pyran-4-yl)thio)methyl)-7-((tetrahydrofuran-3-yl)methoxy)quinazolin-4(3H)-one] showed a pIC50 above 6.00.

`NC[C@]1(F)CC[C@@H](SCc2nc3cc(NC4CCCC4)cc(F)c3c(=O)[nH]2)CC1` [Example 243, 2-(((trans-4-(Aminomethyl)-4-fluorocyclohexyl)thio)methyl)-7-(cyclopentylamino)-5-fluoroquinazolin-4(3H)-one Trifluoroacetate] gave a pIC50 above 6.00.

For the compound `NC[C@]1(F)CC[C@H](SCc2nc3cc(NC4CCCC4)cc(F)c3c(=O)[nH]2)CC1` [Example 244, 2-(((cis-4-(Aminomethyl)-4-fluorocyclohexyl)thio)methyl)-7-(cyclopentylamino)-5-fluoroquinazolin-4(3H)-one Trifluoroacetate], the pIC50 is above 6.00.

In turn, `O=c1[nH]c(CSC2CCOCC2)nc2cc(NC3CCOCC3)c(F)cc12` [Example 245, 6-Fluoro-7-((tetrahydro-2H-pyran-4-yl)amino)-2-(((tetrahydro-2H-pyran-4-yl)thio)methyl)quinazolin-4(3H)-one] gave a pIC50 of 5.00 to 6.00.

With `CN1CCC(SCc2nc3cc(NC4CCCC4)cc(F)c3c(=O)[nH]2)CC1` [Example 246, 7-(Cyclopentylamino)-5-fluoro-2-(((1-methylpiperidin-4-yl)thio)methyl)quinazolin-4(3H)-one], the negative-log IC50 (pIC50) was above 6.00.

The compound `O=c1[nH]c(CSC2CCOCC2)nc2cc(NC3CCCCC3)cc(F)c12` [Example 247, 7-(Cyclohexylamino)-5-fluoro-2-(((tetrahydro-2H-pyran-4-yl)thio)methyl)quinazolin-4(3H)-one] gave a pIC50 above 6.00.

With `O=c1[nH]c(CSC2CCNCC2)nc2cc(NC3CCCCC3)cc(F)c12` [Example 248, 7-(Cyclohexylamino)-5-fluoro-2-((piperidin-4-ylthio)methyl)quinazolin-4(3H)-one], the pIC50 was above 6.00.

Turning to `O=c1[nH]c(CS[C@H]2CC[C@H](O)CC2)nc2cc(NC3CCCCC3)cc(F)c12` [Example 249, 7-(Cyclohexylamino)-5-fluoro-2-((((1r,4r)-4-hydroxycyclohexyl)thio)methyl)quinazolin-4(3H)-one], the pIC50 is above 6.00.

As to `CS(=O)(=O)N1CCC[C@@H](Nc2cc(F)c3c(=O)[nH]c(CSC4CCOCC4)nc3c2)C1` [Example 250, (R)-5-fluoro-7-((1-(methylsulfonyl)piperidin-3-yl)amino)-2-(((tetrahydro-2H-pyran-4-yl)thio)methyl)quinazolin-4(3H)-one], the pIC50 was above 6.00.

With `O=c1[nH]c(CSC2CCOCC2)nc2cc(NC3CCC3)cc(F)c12` [Example 251, 7-(Cyclobutylamino)-5-fluoro-2-(((tetrahydro-2H-pyran-4-yl)thio)methyl)quinazolin-4(3H)-one], the pIC50 was above 6.00.

For `O=c1[nH]c(CSC2CCOCC2)nc2cc(NCCC3CCCC3)ccc12` [Example 252, 7-((2-Cyclopentylethyl)amino)-2-(((tetrahydro-2H-pyran-4-yl)thio)methyl)quinazolin-4(3H)-one], the pIC50 was above 6.00.

For the compound `O=c1[nH]c(CSC2CCOCC2)nc2cc(NC3CCCC3)cc(Cl)c12` [Example 253, 5-Chloro-7-(cyclopentylamino)-2-(((tetrahydro-2H-pyran-4-yl)thio)methyl)quinazolin-4(3H)-one], the pIC50 was above 6.00.

`O=c1[nH]c(CSC2CCN(CC(F)(F)F)CC2)nc2cc(NC3CCCC3)ccc12` [Example 254, 7-(Cyclopentylamino)-2-(((1-(2,2,2-trifluoroethyl)piperidin-4-yl)thio)methyl)quinazolin-4(3H)-one] showed a pIC50 above 6.00.

Take `O=c1[nH]c(CSC2CCN(C3COC3)CC2)nc2cc(NC3CCCC3)cc(F)c12` [Example 255, 7-(Cyclopentylamino)-5-fluoro-2-(((1-(oxetan-3-yl)piperidin-4-yl)thio)methyl)quinazolin-4(3H)-one]: the pIC50 is above 6.00.

`O=c1[nH]c(CSC2CCOCC2)nc2cc(NCCC3CCOCC3)ccc12` [Example 256, 7-((2-(Tetrahydro-2H-pyran-4-yl)ethyl)amino)-2-(((tetrahydro-2H-pyran-4-yl)thio)methyl)quinazolin-4(3H)-one] had a pIC50 above 6.00.

`Cc1cc(NC2CCCC2)cc2nc(CSC3CCNCC3)[nH]c(=O)c12` [Example 257, 7-(Cyclopentylamino)-5-methyl-2-((piperidin-4-ylthio)methyl)quinazolin-4(3H)-one hydrochloride] gave a pIC50 above 6.00.

On to `O=c1[nH]c(CSC2CCN(CC(F)F)CC2)nc2cc(NC3CCCC3)ccc12` [Example 258, 7-(Cyclopentylamino)-2-(((1-(2,2-difluoroethyl)piperidin-4-yl)thio)methyl)quinazolin-4(3H)-one], for which the pIC50 was above 6.00.

Regarding `O=c1[nH]c(CSC2CCN(CCC(F)(F)F)CC2)nc2cc(NC3CCCC3)ccc12` [Example 259, 7-(Cyclopentylamino)-2-(((1-(3,3,3-trifluoropropyl)piperidin-4-yl)thio)methyl)quinazolin-4(3H)-one], the pIC50 was above 6.00.

In turn, `O=c1[nH]c(CSC2CCNCC2)nc2cc(NCC3CCC3)cc(F)c12` [Example 261, 7-((Cyclobutylmethyl)amino)-5-fluoro-2-((piperidin-4-ylthio)methyl)quinazolin-4(3H)-one] showed a pIC50 above 6.00.

For `O=c1[nH]c(CSC2CCNCC2)nc2cc(NCC3CC3(F)F)cc(F)c12` (stereo not shown) [Example 262, 7-(((2,2-Difluorocyclopropyl)methyl)amino)-5-fluoro-2-((piperidin-4-ylthio)methyl)quinazolin-4(3H)-one], the pIC50 is above 6.00.

`O=c1[nH]c(CSC2CCN(CC(F)(F)F)CC2)nc2cc(NC3CCCC3)cc(F)c12` [Example 263, 7-(Cyclopentylamino)-5-fluoro-2-(((1-(2,2,2-trifluoroethyl)piperidin-4-yl)thio)methyl)quinazolin-4(3H)-one] gave a pIC50 above 6.00.

The compound `CC(F)(F)CN1CCC(SCc2nc3cc(NC4CCCC4)ccc3c(=O)[nH]2)CC1` [Example 264, 7-(Cyclopentylamino)-2-(((1-(2,2-difluoropropyl)piperidin-4-yl)thio)methyl)quinazolin-4(3H)-one] showed a pIC50 above 6.00.

As for `O=c1[nH]c(CSC2CCNCC2)nc2cc(NCC3CC3)cc(F)c12` [Example 265, 7-((Cyclopropylmethyl)amino)-5-fluoro-2-((piperidin-4-ylthio)methyl)quinazolin-4(3H)-one], the pIC50 is above 6.00.

`O=c1[nH]c(CSC2CCNCC2)nc2cc(NC3CCC(F)(F)C3)cc(F)c12` (stereo not shown) [Example 266, 7-((3,3-Difluorocyclopentyl)amino)-5-fluoro-2-((piperidin-4-ylthio)methyl)quinazolin-4(3H)-one] had a pIC50 above 6.00.

On to `CS(=O)(=O)N1CCC[C@@H](Nc2ccc3c(=O)[nH]c(CS[C@H]4CC[C@H](O)CC4)nc3c2)C1` [Example 267, 2-(((Trans-4-hydroxycyclohexyl)thio)methyl)-7-(((R)-1-(methylsulfonyl)piperidin-3-yl)amino)quinazolin-4(3H)-one], for which the pIC50 is above 6.00.

The compound `CC(=O)N1CCC(SCc2nc3cc(N[C@@H]4CCCN(S(C)(=O)=O)C4)ccc3c(=O)[nH]2)CC1` [Example 268, (R)-2-(((1-acetylpiperidin-4-yl)thio)methyl)-7-((1-(methylsulfonyl)piperidin-3-yl)amino)quinazolin-4(3H)-one] showed a pIC50 above 6.00.

`CS(=O)(=O)N1CCC[C@@H](Nc2cc(F)c3c(=O)[nH]c(CS[C@H]4CC[C@H](O)CC4)nc3c2)C1` [Example 269, 5-Fluoro-2-(((trans-4-hydroxycyclohexyl)thio)methyl)-7-(((R)-1-(methylsulfonyl)piperidin-3-yl)amino)quinazolin-4(3H)-one] had a pIC50 above 6.00.

The compound `O=c1[nH]c(CSC2CCS(=O)(=O)CC2)nc2cc(NC3CCCC3)cc(F)c12` [Example 270, 7-(Cyclopentylamino)-2-(((1,1-dioxidotetrahydro-2H-thiopyran-4-yl)thio)methyl)-5-fluoroquinazolin-4(3H)-one] gave a pIC50 above 6.00.

Turning to `O=c1[nH]c(CS[C@H]2CC[C@H](O)CC2)nc2cc(NCC3CC3)cc(F)c12` [Example 271, 7-((Cyclopropylmethyl)amino)-5-fluoro-2-(((trans-4-hydroxycyclohexyl)thio)methyl)quinazolin-4(3H)-one], the pIC50 is above 6.00.

Compound `O=c1[nH]c(CSC2CCNCC2)nc2cc(NCC3CCOCC3)cc(F)c12` [Example 272, 5-Fluoro-2-((piperidin-4-ylthio)methyl)-7-(((tetrahydro-2H-pyran-4-yl)methyl)amino)quinazolin-4(3H)-one] gave a pIC50 of 5.00 to 6.00.

`O=c1[nH]c(CSC2CCN(C3CS(=O)(=O)C3)CC2)nc2cc(NC3CCCC3)cc(F)c12` [Example 273, 7-(Cyclopentylamino)-2-(((1-(1,1-dioxidothietan-3-yl)piperidin-4-yl)thio)methyl)-5-fluoroquinazolin-4(3H)-one] showed a pIC50 above 6.00.

`O=c1[nH]c(CSC2CCN(C3COC3)CC2)nc2cc(NCC3CC3)cc(F)c12` [Example 274, 7-((Cyclopropylmethyl)amino)-5-fluoro-2-(((1-(oxetan-3-yl)piperidin-4-yl)thio)methyl)quinazolin-4(3H)-one] showed a pIC50 above 6.00.
